Data on one compound can be found in patent US20130065964A1, “PERITONEAL DIALYSIS SOLUTION” (UNIVERSIDAD DE CASTILLA LA MANCHA, priority 2010, published 2013).

Common to all, as to type: cell-based
In assay [1] the test system is reactive oxygen species (ROS) in rat PMCs. In words: Reactive oxygen species by flow cytometry (DCF). To be noted: D-glucose 50 mM and 83 mM, 8 hours, aliskiren 10-100 μM, FIG. 6. The method, then: The cells were incubated in D-glucose at 50 mM (A) and 83 mM (B) for 8 hours in the presence or absence of aliskiren (10-100 μM) and dichlorofluorescein (DCF) intensity was measured using flow cytometry, as described in Material and Methods. The data is expressed as mean±SEM, n=3. * p<0.05 compared to untreated cells (control). # p<0.05, compared to cells treated with D-glucose in the presence of carrier (0).
Rat peritoneal mesothelial cells were isolated by enzymatic digestion in accordance with protocols described in Hjelle J T, Golinska B T, Waters D C, et al. Perit Dial Int 1989; 9: 341-7. Briefly, female rats weighing 200-400 g of the Spragle-Dawley strain were sacrificed pursuant to Royal Decree 1201/2005, of 10 Oct., on protection of animals used for experimental and other scientific purposes. The abdominal cavity was quickly opened and the abdominal wall (peritoneum and smooth muscle) extracted under sterile conditions. […]
After washing with PBS, the cells were incubated with 5.6-chloromethyl-2,7-dichlorodihydrofluorescein diacetate (CM-H2DCFDA, Invitrogen) for 15 minutes at 37° C., following the standard protocol (Lee H B, 2004). […] The production of reactive oxygen species was calculated on the basis of evaluation of 10,000 cells per experimental condition.

The next assay deals with Collagen I. The assay is described as follows: Real-time RT-PCR in cultured PMCs exposed to PDF. To be noted: rat PMCs, 1.5% PDF diluted 1:1 in culture medium, 24 hours, aliskiren 10-100 μM, FIG. 9. The method, then: (§1) After incubating the rat PMCs in 1.5% PDF diluted 1:1 in culture medium for 24 hours, in the presence or absence of carrier or different concentrations of aliskiren (10-100 μM), total RNA was isolated and real-time RT-PCR was carried out as described in Material and Methods. The data is expressed as mean±SEM, n=3. * p<0.05 compared to untreated cells (control). # p<0.05, compared to cells treated with 1.5% PDF in the presence of carrier (0).
(§2) Rat peritoneal mesothelial cells were isolated by enzymatic digestion in accordance with protocols described in Hjelle J T, Golinska B T, Waters D C, et al. Perit Dial Int 1989; 9: 341-7. […]
(§3) The RNA expression was evaluated by real-time RT-PCR in PMCs. […] RNA quality and concentration was evaluated by spectrophotometry (Infinite 200, Tecan, Salzburg, Austria) using 1 μl of the RNA sample. […] The dissociation curves were analysed to confirm the amplification of a single PCR product. […] In each experiment, the mean cycle threshold (CT) was calculated from triplicates for each of the genes studied, enabling comparison of the gene expression after different treatments (Methods 25, 402-408 (2001). In order to normalize the data, the gene expression of β-actin was used as endogenous control.

For another assay, the system named is fibronectin. The assay is described as follows: Real-time RT-PCR in cultured PMCs exposed to PDF. The note with it: rat PMCs, 1.5% PDF diluted 1:1 in culture medium, 24 hours, aliskiren 10-100 μM, FIG. 11. On the procedure:
as §1, §2, §3

As for `COCCCOc1cc(C[C@@H](C[C@H](N)[C@@H](O)C[C@H](C(=O)NCC(C)(C)C(N)=O)C(C)C)C(C)C)ccc1OC` [aliskiren], in assay [1], the “production of reactive oxygen species” value is on record as “prevented”. For the same compound, the “RNAm levels for collagen I” value in the assay on Collagen I is “lowered”. The “RNAm levels for fibronectin” value in the assay on fibronectin is recorded as “lowered”.
